Experimental data as given in patent US20170280720A1, “ARGININE […] INHIBITORS AND USES THEREOF” (EPIZYME, INC., priority 2014, published 2017).

Columns and labels:
[1] = test system: asymmetric di-methyl PABP1 in RKO cells; assay: In Cell Western (ICW) for asymmetric di-methyl PABP1 and DNA content in RKO cells; format: cell-based; conditions: Homo sapiens, RKO, In Cell Western
In short: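 RKO cells treated with compound for 48 h at 37 °C, then fixed, methanol-permeabilized and stained for asymmetric di-methyl PABP1 (800 nm) with DRAQ5 DNA stain (700 nm). Signal ratio normalized to DMSO and 20 μM reference-compound controls. IC50 from nine 3-fold dilutions in triplicate.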

PRMT5 = PRMT5 (Homo sapiens, UniProt O14744); assay: PRMT5 IC50 (Table 2; no method described); format: biochemical; conditions: read-out: PRMT5_ IC50
Chain of PRMT5 (O14744 whole entry, species assumed): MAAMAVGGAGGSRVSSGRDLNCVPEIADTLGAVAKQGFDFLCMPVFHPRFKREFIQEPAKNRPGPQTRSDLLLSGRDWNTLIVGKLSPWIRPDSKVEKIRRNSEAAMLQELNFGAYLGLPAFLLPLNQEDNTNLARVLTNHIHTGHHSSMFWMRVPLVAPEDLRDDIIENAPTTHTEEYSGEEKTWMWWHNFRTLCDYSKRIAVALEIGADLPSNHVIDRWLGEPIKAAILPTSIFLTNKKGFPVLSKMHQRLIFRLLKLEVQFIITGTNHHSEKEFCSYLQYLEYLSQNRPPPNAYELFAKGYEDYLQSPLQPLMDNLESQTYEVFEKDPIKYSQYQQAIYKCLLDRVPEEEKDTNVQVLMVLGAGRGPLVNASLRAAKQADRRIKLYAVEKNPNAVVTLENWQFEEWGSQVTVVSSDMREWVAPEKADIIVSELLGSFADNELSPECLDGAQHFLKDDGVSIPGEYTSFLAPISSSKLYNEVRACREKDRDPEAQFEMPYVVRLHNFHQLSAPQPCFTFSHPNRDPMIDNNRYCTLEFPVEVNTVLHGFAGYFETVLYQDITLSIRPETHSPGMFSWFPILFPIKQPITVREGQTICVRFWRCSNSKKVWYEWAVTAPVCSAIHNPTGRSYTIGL
Chain of PRMT5 (Q9BQA1 whole entry partner, species assumed): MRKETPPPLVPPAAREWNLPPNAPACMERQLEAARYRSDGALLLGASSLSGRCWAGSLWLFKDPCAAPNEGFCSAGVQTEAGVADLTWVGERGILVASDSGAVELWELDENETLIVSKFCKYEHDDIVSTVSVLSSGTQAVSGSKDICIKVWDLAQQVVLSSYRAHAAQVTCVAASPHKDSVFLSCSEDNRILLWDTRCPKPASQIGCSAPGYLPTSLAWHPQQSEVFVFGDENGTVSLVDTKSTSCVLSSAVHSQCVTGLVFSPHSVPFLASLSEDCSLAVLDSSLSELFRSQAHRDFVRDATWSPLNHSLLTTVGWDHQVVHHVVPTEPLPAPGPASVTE

| Compound | IC50 [1] [µM] | IC50 (PRMT5) [µM] |
| --- | --- | --- |
| COc1ccc(Cn2cnc3ccc(-c4ccc(CN(C)CCN)cc4)cc32)cc1 [Compound 16] | – | 5.69 |
| CNCCN(C)Cc1cccc(-c2nc(NCc3cc(C)nn3C)c3cnn(C4CC4)c3n2)c1 [Compound 17] | 20 | – |
| CN(CCN)Cc1cccc(-c2nc(NC3CCOCC3)c3cnn(C(C)(C)C)c3n2)c1 [Compound 18] | 0.442 | – |
| CNCCN(C)Cc1cccc(-c2cc(Nc3ncc(C)s3)c3cnn(C(C)C)c3n2)c1 [Compound 20] | 3.33 | – |
| CNCCN(C)Cc1cccc(-c2cc(C(=O)NCC3CCOCC3)c3cnn(C4CCC4)c3n2)c1 [Compound 21] | 7.37 | – |
| Cc1nn(C(C)C)c2nc(-c3cccc(CN(C)CCN)c3)cc(N3CCOCC3)c12 [Compound 22, N1-(3-(1-isopropyl-3-methyl-4-morpholino-1H-pyrazolo[3,4-b]pyridin-6-yl)benzyl)-N1-methylethane-1,2-diamine] | 3.11 | – |
| CNCCN(C)Cc1cccc(-c2cc(C(=O)NCC3CCOCC3)c3cnn(C4CC4)c3n2)c1 [Compound 26] | 2.15 | – |
| CNCCN(C)Cc1cccc(-c2nc(NC3CCOCC3)c3cnn(C(C)(C)C)c3n2)c1 [Compound 27, N1-(3-(1-tert-butyl-4-(tetrahydro-2H-pyran-4-ylamino)-1H-pyrazolo[3,4-d]pyrimidin-6-yl)benzyl)-N1,N2-dimethylethane-1,2-diamine] | 0.387 | – |
| CNCCN(C)Cc1cccc(-c2cc(C(=O)NC3CCOCC3)c3cnn(C4CCC4)c3n2)c1 [Compound 29] | 5.21 | – |
| CNCCN(C)Cc1cccc(-c2cnc3c(c2)c(Br)nn3CC2CCOCC2)c1 [Compound 39] | 20 | – |
| CS(=O)(=O)N1CCC(Cn2cnc3ccc(-c4ccc(CNCCN)cc4)cc32)CC1 [Compound 129] | – | 0.122 |
| CNCCN(C)Cc1cc(-c2cc(C(=O)NC3CCOCC3)c3cnn(C(C)C)c3n2)ccc1F [Compound 130] | 11.5 | – |
| Cc1ccc(-n2cnc3cc(-c4ccc(CNCCN)cc4)ccc32)cc1 [Compound 131] | – | 0.371 |
| COc1ccc(Cn2cnc3ccc(-c4ccc(CNCCN)cc4)cc32)cc1 [Compound 132] | – | 0.0572 |
| CNCCN(C)Cc1cccc(-c2cc(NC(=O)NC3CCOCC3)c3cnn(C(C)C)c3n2)c1 [Compound 133] | 11.5 | – |
| COc1cccc(Cc2nc3ccc(-c4ccc(CNCCN)cc4)cc3n2C(C)C)c1 [Compound 135] | – | 0.169 |
| CNCCN(C)Cc1cccc(-c2cc(NS(=O)(=O)N(C)C)c3cnn(C(C)C)c3n2)c1 [Compound 139] | 4.86 | – |
| Cc1cc2cc(-c3ccc(CNCCN)cc3)ccc2[nH]1 [Compound 141] | – | 0.327 |
| CN(CCN)Cc1cccc(-c2cc(C(=O)NC3CCOCC3)c3cnn(C4CC4)c3n2)c1 [Compound 142] | 2.77 | – |
| Cc1cccc(CCn2cnc3ccc(-c4ccc(CNCCN)cc4)cc32)c1 [Compound 143] | – | 0.281 |
| CN(CCN)Cc1cccc(-c2cc(C(=O)NC3CCOCC3)c3cnn(CC(F)(F)F)c3n2)c1 [Compound 144] | 8.46 | – |
| N#Cc1cccc(Cn2cnc3ccc(-c4ccc(CNCCN)cc4)cc32)c1 [Compound 145] | – | 0.0799 |
| CC(C)n1ncc2c(C(=O)N3CCCCC3)cc(-c3cccc(CNCCN)c3)nc21 [Compound 153] | 20 | – |
| NCCNCc1ccc(-c2cnc3c(c2)CCC(=O)N3)cc1 [Compound 156] | – | 0.338 |
| NCCNCc1ccc(-c2ccc3ncn(C4CCNCC4)c3c2)cc1 [Compound 157] | – | 0.418 |
| CC(C)n1ncc2c(N3CCOCC3)cc(-c3cccc(CN(C)CCNC4CC4)c3)nc21 [Compound 163] | 11.6 | – |
| CNCCN(C)Cc1cccc(-c2cc(NS(=O)(=O)C(F)(F)F)c3cnn(C(C)C)c3n2)c1 [Compound 164] | 11.9 | – |
| CC(C)n1cnc2ccc(-c3ccc(CNCCN)cc3)cc21 [Compound 166] | – | 0.404 |
| CNCCN(C)Cc1cccc(-c2cnc3c(c2)OCC(=O)N3)c1 [Compound 355] | 12.8 | – |
| COc1cccc(CNC(=O)c2cncc(-c3ccc(CNCCN)cc3)c2)c1 [Compound 356] | – | 0.377 |

Second part, the compound after the results:

| IC50 [1] [µM] | IC50 (PRMT5) [µM] | Compound |
| --- | --- | --- |
| 3.44 | – | CNCCN(C)Cc1cccc(-c2cc(NC3CC3)c3cnn(C(C)C)c3n2)c1 [Compound 11] |
| 20 | – | CC(C)n1ncc2c(C(=O)NCc3ccccc3)cc(-c3cccc(CN(C)CCN)c3)cc21 [Compound 14] |
| – | 10.8 | Cc1c(C(=O)NCc2ccccc2)cc(-c2cccc(CN(C)CCN)c2)c2cn[nH]c12 [Compound 15] |
| – | 34.7 | CN(CCN)Cc1ccc(-c2ccc3ncn(-c4ccccc4)c3c2)cc1 [Compound 19] |
| – | 11.6 | CC(C)n1ncc2c(C(=O)N3CCc4ccccc4C3)cc(-c3cccc(CN(C)CCN)c3)nc21 [Compound 23] |
| – | 0.849 | CNCCN(C)Cc1cccc(-c2cc(C(=O)N(C)Cc3ccccc3)c3cnn(C(C)C)c3n2)c1 [Compound 24] |
| – | 0.858 | CC(C)n1ncc2c(C(=O)N(C)Cc3ccccc3)cc(-c3cccc(CN(C)CCN)c3)nc21 [Compound 31] |
| 3.05 | – | CNCCN(C)Cc1cccc(-c2ccc3cn(Cc4ccccc4)nc3n2)c1 [Compound 35] |
| – | 50 | CNCCN(C)Cc1cccc(-c2ccc3c(c2)ncn3C(C)C)c1 [Compound 36] |
| 4.12 | – | CNCCN(C)Cc1cccc(-c2cc(C(=O)NCc3ccccc3F)c3cnn(C(C)C)c3n2)c1 [Compound 38] |
| 5.94 | – | CC(C)n1ncc2c(NC3CC3)cc(-c3cccc(CN(C)CCN)c3)nc21 [Compound 41] |
| 20 | – | CC(C)n1ncc2c(C(=O)N3CCCCC3)cc(-c3cccc(CN(C)CCN)c3)nc21 [Compound 43] |
| – | 50 | CNCCN(C)Cc1cccc(-c2cc(C(=O)N[C@@H](C)c3ccccc3)c3cnn(C(C)C)c3n2)c1 [Compound 44] |
| 20 | – | CNCCN(C)Cc1cccc(-c2cc(Oc3ccccc3)c3cnn(C(C)C)c3n2)c1 [Compound 45] |
| 10.8 | – | CNC(=O)Nc1cc(-c2cccc(CN(C)CCN)c2)nc2c1cnn2C(C)C [Compound 126] |
| 20 | – | CCC(=O)c1cc(-c2cccc(CN(C)CCNC)c2)nc2c1cnn2C(C)C [Compound 128] |
| – | 50 | CC(C)n1ncc2c(C(=O)N[C@@H](C)c3ccccc3)cc(-c3cccc(CN(C)CCN)c3)nc21 [Compound 136] |
| 9.62 | – | CNCCN(C)Cc1cccc(-c2cc(C(=O)NCc3cnn(C)c3C)c3cnn(C(C)C)c3n2)c1 [Compound 137] |
| 7.74 | – | CNCCN(C)Cc1cccc(-c2cc(NC(=O)NC)c3cnn(C(C)C)c3n2)c1 [Compound 138] |
| 0.972 | – | CC(C)n1ncc2c(C(=O)NC3CCOCC3)cc(-c3cccc(CN(C)CCN)c3)nc21 [Compound 148] |
| – | 23.9 | CC(C)n1ncc2c(C(=O)NCc3ccncc3)cc(-c3cccc(CNCCN)c3)nc21 [Compound 150] |
| 20 | – | CNCCN(C)Cc1cccc(-c2cc(N)c3cnn(C(C)C)c3n2)c1 [Compound 151] |
| 13.5 | – | CN(CCN)Cc1cccc(-c2cc(C(=O)NC3CCOCC3)c3cnn(C)c3n2)c1 [Compound 158] |
| 20 | – | CC(C)n1ncc2c(C(=O)NCc3ccccc3F)cc(-c3cccc(CNCCN)c3)nc21 [Compound 159] |
| – | 35.9 | CC(C)n1ncc2c(C(=O)N[C@@H](C)c3ccccc3)cc(-c3cccc(CNCCN)c3)nc21 [Compound 160] |
| 11.3 | – | CCS(=O)(=O)Nc1cc(-c2cccc(CN(C)CCNC)c2)nc2c1cnn2C(C)C [Compound 161] |
| – | 50 | CC(C)n1ncc2c(C(=O)NCC3CCN(C)CC3)cc(-c3cccc(CN(C)CCN(C)C)c3)nc21 [Compound 162] |
| 5.14 | – | CC(C)n1ncc2c(C(=O)NCC3CCOCC3)cc(-c3cccc(CN(C)CCNC4CC4)c3)nc21 [Compound 167] |
| 13.3 | – | CNCCN(C)Cc1cccc(-c2cc(NS(C)(=O)=O)c3cnn(C(C)C)c3n2)c1 [Compound 169] |
